This note sets out measurements from patent US20250230172A1 (Vanqua Bio, Inc., priority 2021, published 2025).

Where only a bound is given, the exact number is not on record here.

The experiment addresses T1, GCase (Homo sapiens, UniProt P04062).
T1 construct: endogenous in cells; host or cells: HeLa cells
T1 sequence (P04062 40-536): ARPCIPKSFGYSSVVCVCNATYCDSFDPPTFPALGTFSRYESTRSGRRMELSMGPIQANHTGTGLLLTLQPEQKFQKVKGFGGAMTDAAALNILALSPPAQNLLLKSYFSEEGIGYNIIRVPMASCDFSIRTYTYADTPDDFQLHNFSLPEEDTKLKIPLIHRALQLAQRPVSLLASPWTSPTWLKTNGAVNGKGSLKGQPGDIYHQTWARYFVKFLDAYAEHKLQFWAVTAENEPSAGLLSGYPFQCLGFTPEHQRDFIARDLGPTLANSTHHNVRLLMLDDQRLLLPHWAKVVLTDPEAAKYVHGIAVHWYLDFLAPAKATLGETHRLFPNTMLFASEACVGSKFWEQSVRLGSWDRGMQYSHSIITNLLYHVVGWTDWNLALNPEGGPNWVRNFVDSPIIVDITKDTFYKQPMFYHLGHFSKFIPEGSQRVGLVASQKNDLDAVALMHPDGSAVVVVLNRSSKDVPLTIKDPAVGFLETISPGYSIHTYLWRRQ
In words: live cell PFB assay in HELA cells for activation of GCase. In kind it is cell-based. The protocol: Exemplary compounds were evaluated for activation of GCase in a live cell PFB assay in HELA cells (essentially as described in Ysselstein et al., “LRRK2 kinase activity regulates lysosomal glucocerebrosidase in neurons derived from Parkinson's disease patients” Nature Communications (2019) 10:5570). […] EC50 ranges: A: <10 μM; B: >10-50 μM; C: >50-100 μM; D: >100 μM.

In the case of `COc1cnc(N2C[C@H]3C[C@H](Nc4cnc5cnn(CC(F)F)c5n4)C[C@H]3C2)cn1` [Compound 77, 1-(2,2-difluoroethyl)-N-((3aR,5s,6aS)-2-(5-methoxypyrazin-2-yl)octahydrocyclopenta[c]pyrrol-5-yl)-1H-pyrazolo[3,4-b]pyrazin-6-amine], the EC50 was above 100 µM.

Take `FC(F)Cn1ncc2ncc(N[C@H]3C[C@@H]4CN(c5cncc(C(F)(F)F)n5)C[C@@H]4C3)nc21` [Compound 78, 1-(2,2-difluoroethyl)-N-((3aR,5s,6aS)-2-(6-(trifluoromethyl)pyrazin-2-yl)octahydrocyclopenta[c]pyrrol-5-yl)-1H-pyrazolo[3,4-b]pyrazin-6-amine]: the EC50 is below 10 µM.

In turn, `FC(F)Cn1ncc2ncc(N[C@H]3C[C@@H]4CN(c5cnc(C(F)(F)F)cn5)C[C@@H]4C3)nc21` [Compound 79, 1-(2,2-difluoroethyl)-N-((3aR,5s,6aS)-2-(5-(trifluoromethyl)pyrazin-2-yl)octahydrocyclopenta[c]pyrrol-5-yl)-1H-pyrazolo[3,4-b]pyrazin-6-amine] yielded an EC50 of 10 to 50 µM.

On to `FC(F)Cn1ncc2ncc(N[C@H]3C[C@@H]4CN(c5nccnc5C(F)(F)F)C[C@@H]4C3)nc21` [Compound 80, 1-(2,2-difluoroethyl)-N-((3aR,5s,6aS)-2-(3-(trifluoromethyl)pyrazin-2-yl)octahydrocyclopenta[c]pyrrol-5-yl)-1H-pyrazolo[3,4-b]pyrazin-6-amine], for which the 50% effective concentration (EC50) was below 10 µM.

Regarding `COc1nccnc1N1C[C@H]2C[C@H](Nc3cnc4cnn(CC(F)F)c4n3)C[C@H]2C1` [Compound 81, 1-(2,2-difluoroethyl)-N-((3aR,5s,6aS)-2-(3-methoxypyrazin-2-yl)octahydrocyclopenta[c]pyrrol-5-yl)-1H-pyrazolo[3,4-b]pyrazin-6-amine], the EC50 is 10 to 50 µM.

Take `FC(F)Cn1ncc2ncc(N[C@H]3C[C@@H]4CN(c5ccc(C(F)(F)F)nn5)C[C@@H]4C3)nc21` [Compound 82, 1-(2,2-difluoroethyl)-N-((3aR,5s,6aS)-2-(6-(trifluoromethyl)pyridazin-3-yl)octahydrocyclopenta[c]pyrrol-5-yl)-1H-pyrazolo[3,4-b]pyrazin-6-amine]: the EC50 lay within 10 to 50 µM.

In turn, `FC(F)Cn1ncc2ncc(N[C@H]3C[C@@H]4CN(c5cc(C(F)(F)F)cnn5)C[C@@H]4C3)nc21` [Compound 83, 1-(2,2-difluoroethyl)-N-((3aR,5s,6aS)-2-(5-(trifluoromethyl)pyridazin-3-yl)octahydrocyclopenta[c]pyrrol-5-yl)-1H-pyrazolo[3,4-b]pyrazin-6-amine] registered an EC50 of 10 to 50 µM.

In the case of `FC(F)Cn1ncc2ncc(N[C@H]3C[C@@H]4CN(c5nnccc5C(F)(F)F)C[C@@H]4C3)nc21` [Compound 84, 1-(2,2-difluoroethyl)-N-((3aR,5s,6aS)-2-(4-(trifluoromethyl)pyridazin-3-yl)octahydrocyclopenta[c]pyrrol-5-yl)-1H-pyrazolo[3,4-b]pyrazin-6-amine], the concentration giving a half-maximal response (EC50) was above 100 µM.

`FC(F)Cn1ncc2ncc(N[C@H]3C[C@@H]4CN(c5nccc(C(F)(F)F)n5)C[C@@H]4C3)nc21` [Compound 85, 1-(2,2-difluoroethyl)-N-((3aR,5s,6aS)-2-(4-(trifluoromethyl)pyrimidin-2-yl)octahydrocyclopenta[c]pyrrol-5-yl)-1H-pyrazolo[3,4-b]pyrazin-6-amine] had an EC50 below 10 µM.

Regarding `FC(F)Cn1ncc2ncc(N[C@H]3C[C@@H]4CN(c5ncc(C(F)(F)F)cn5)C[C@@H]4C3)nc21` [Compound 86, 1-(2,2-difluoroethyl)-N-((3aR,5s,6aS)-2-(5-(trifluoromethyl)pyrimidin-2-yl)octahydrocyclopenta[c]pyrrol-5-yl)-1H-pyrazolo[3,4-b]pyrazin-6-amine], the EC50 lay within 10 to 50 µM.

In the case of `FC(F)Cn1ncc2ncc(N[C@H]3C[C@@H]4CN(c5ccnc(C(F)(F)F)n5)C[C@@H]4C3)nc21` [Compound 87, 1-(2,2-difluoroethyl)-N-((3aR,5s,6aS)-2-(2-(trifluoromethyl)pyrimidin-4-yl)octahydrocyclopenta[c]pyrrol-5-yl)-1H-pyrazolo[3,4-b]pyrazin-6-amine], the EC50 is below 10 µM.

`FC(F)Cn1ncc2ncc(N[C@H]3C[C@@H]4CN(c5cnc(C(F)(F)F)nc5)C[C@@H]4C3)nc21` [Compound 88, 1-(2,2-difluoroethyl)-N-((3aR,5s,6aS)-2-(2-(trifluoromethyl)pyrimidin-5-yl)octahydrocyclopenta[c]pyrrol-5-yl)-1H-pyrazolo[3,4-b]pyrazin-6-amine] yielded an EC50 below 10 µM.

In turn, `FC(F)Cn1ncc2ncc(N[C@H]3C[C@@H]4CN(c5cncnc5C(F)(F)F)C[C@@H]4C3)nc21` [Compound 89, 1-(2,2-difluoroethyl)-N-((3aR,5s,6aS)-2-(4-(trifluoromethyl)pyrimidin-5-yl)octahydrocyclopenta[c]pyrrol-5-yl)-1H-pyrazolo[3,4-b]pyrazin-6-amine] came in with an EC50 below 10 µM.

In the case of `FC(F)Cn1ncc2ncc(N[C@H]3C[C@@H]4CN(c5cc(C(F)(F)F)ncn5)C[C@@H]4C3)nc21` [Compound 90, 1-(2,2-difluoroethyl)-N-((3aR,5s,6aS)-2-(6-(trifluoromethyl)pyrimidin-4-yl)octahydrocyclopenta[c]pyrrol-5-yl)-1H-pyrazolo[3,4-b]pyrazin-6-amine], the EC50 was below 10 µM.

In turn, `FC(F)Cn1ncc2ncc(N[C@H]3C[C@@H]4CN(c5ncncc5C(F)(F)F)C[C@@H]4C3)nc21` [Compound 91, 1-(2,2-difluoroethyl)-N-((3aR,5s,6aS)-2-(5-(trifluoromethyl)pyrimidin-4-yl)octahydrocyclopenta[c]pyrrol-5-yl)-1H-pyrazolo[3,4-b]pyrazin-6-amine] displayed an EC50 below 10 µM.
